Results: patent publication US12576057B2, “Antibacterial and biofilm formation-inhibiting composition containing myristoleic acid as active ingredient” (RESEARCH COOPERATION FOUNDATION OF YEUNGNAM UNIVERSITY, priority 2020, dated 2026)
Values after ≈ are worked out from the molar mass of the structure shown. Where two headings read alike, the source gives them in different places.

Experiments:
C. acnes ATCC 6919 [1] = assay: Crystal violet biofilm formation assay, C. acnes ATCC 6919; type: cell-based, Cutibacterium acnes; conditions: for inhibition at 20 µg/mL / inhibition at 1 µg/mL: Cutibacterium acnes, ATCC6919, 96 h; for inhibition at 20 µg/mL / change in biofilm formation: 20 μg/ml; for inhibition at 20 µg/mL: 96 h culture in RCM, 96-well plate; for inhibition at 1 µg/mL: 1 μg/ml, 96 h, 96-well polystyrene plate, read-out: inhibitory effect on biofilm formation; for change in biofilm formation: 96 h culture
Experimental: 3. Crystal Violet Film Assay
Crystal violet assay was performed by the previously reported method (Lee et al., 2017b) to quantify biofilm formation.
To quantify the biofilm, planktonic growth was eliminated, the plate was washed three times with distilled water, and the biofilm attached to the well was stained with 0.1% crystal violet for 20 minutes. Thereafter, the plate was washed three times with sterile distilled water, and crystal violet was extracted using 95% ethanol, absorbance was measured at 570 nm using Multiskan EX microplate reader (Thermo Fisher Scientific, Waltham, MA), and the result was shown as an average value of at least 12 replicate wells.
Percentage for inhibition rate represents relative biofilm formation (100×biofilm formation with chemical/biofilm formation of untreated control).

C. acnes ATCC 6919 [2] = assay: Planktonic cell growth and MIC identification; type: cell-based, Cutibacterium acnes; conditions: for MIC: after 96 hours of culture
Experimental: 2. Measurement of Planktonic Cell Growth and MIC Identification In order to identify the effect of fatty acids on the planktonic growth of C. acnes, a culture cultured for 96 hours in a 96-well plate was re-transplanted after undergoing dilution in a ratio of 1:50 and then treated with fatty acids of different concentrations. Plates were cultured under anaerobic condition at 37° C. and maintained using an anaerobic pouch (Fisher Scientific, Pittsburgh, USA). After 96 hours of culture, cell turbidity was checked at 600 nm using Optizen 2120UV spectrophotometer ([…] Co. Ltd., Daejeon, Korea).

C. acnes ATCC 6919 [3] = assay: Rapid killing (time-kill) experiment; type: cell-based, Cutibacterium acnes; conditions: 100 μg/ml
Experimental: 4. Analysis of Rapid Killing of Acne Bacteria Using Fatty Acids To determine the killing time by fatty acids, a time-kill experiment was performed. Briefly, cultures of C. acnes ATCC 6919 grown in RCM broth (BD Difco™, Fisher Scientific, Pittsburgh, USA) at 37° C. under anaerobic conditions for 96 hours were diluted in a ratio of 1:50 with fresh RCM medium. The samples were treated with myristoleic acid (50 and 100 μg/ml) or lauric acid (50 and 100 μg/ml) and cultured at 37° C. under anaerobic conditions while stirring. At each time point, aliquots of treated cells were collected, and after performing appropriate dilutions, cells were smeared on RCM agar plates and incubated at 37° C. for 96 hours, followed by enumeration of CFUs, wherein each experiment was repeated.

C. acnes ATCC 6919 [4] = assay: Quantification of extracellular polymeric substance (EPS); type: cell-based, Cutibacterium acnes; conditions: 10 μg/ml, 96 h culture
Experimental: 6. Quantification of Extracellular Polymeric Substance (EPS)
For EPS quantification, C. acnes treated with control and myristoleic acid was cultured at 37° C. for 96 hours. After culture, the culture was centrifuged at 8,228×g for 10 minutes, and the supernatant was separated.
The cell pellet was washed with sterile PBS to remove the culture supernatant which is free of residual cells. 15 ml of an isotonic solution (10 mM Tris/HCl, pH 8.0, 10 mM EDTA, 2.5% NaCl) was added to the cell pellet, and the mixed wells were culture at 4° C. overnight.
After overnight culture, the cell suspension was shaken to be mixed for 5 minutes, followed by centrifugation at 8,228×g for 10 minutes. The supernatant containing EPS bound with the cells was separated from the cells. Cold ethanol was added to the supernatant in a ratio of 1:3 and left at −20° C. overnight.
After collecting the precipitated EPS by centrifugation at 4° C., 18,514×g for 30 minutes, the pellet was washed with 70% ethanol and dried. The dried EPS was weighed, and inhibition of EPS production by fatty acids was calculated by the following formula (Sivasankar et al., 2016). ([Control wt−Treated wt/Control wt]×100) 7. Hydrophobicity Analysis: Microbial Adherence to Hydrocarbon (MATH)

C. acnes [5] = assay: Scanning electron microscopy of biofilm / EPS; type: cell-based, Cutibacterium acnes; conditions: 10 μg/ml
Experimental: 5. Scanning Electron Microscopy
Production of extracellular polymeric substance (EPS) was detected by electron microscopy (SEM) by the previously reported method (Lee et al., 2011).
Briefly, C. acnes cells were inoculated in 96-well plates under conditions with or without fatty acids, and a nylon filter (0.4×0.4 mm square) was added to each well. Biofilms were grown on the nylon filters by culturing together for 96 hours without stirring under anaerobic conditions at 37° C.
Then, the biofilm cells on the piece of nylon filter were immobilized with 2.5% glutaraldehyde and 2% formaldehyde for 24 hours and sequentially immobilized with osmium tetroxide, followed by dehydration with ethanol series (50, 70, 80, 90, 95 and 100%) and isoamyl acetate.
After critical point drying, the cells on the filter were stopper-coated with to palladium/gold, and observed under an S-4100 scanning electron microscope (Hitachi, Tokyo, Japan) at a magnification of ×1000 to ×10,000 using an acceleration voltage of 15 kV.

C. acnes ATCC 6919 [6] = assay: Hydrophobicity analysis: microbial adherence to hydrocarbon (MATH); type: cell-based, Cutibacterium acnes; conditions: for change of cell hydrophobicity: 10 and 20 μg/ml fatty acids, 96 h
Experimental: MATH analysis (Rosenberg et al., 1980) was performed to identify the effect of fatty acids on the attachability of C. acnes to hydrocarbons (toluene) and the cell surface hydrophobicity of C. acnes.
C. acnes were grown without fatty acids for 96 hours under anaerobic conditions at 37° C.
The OD values of all treated and untreated cultures were adjusted to OD 0.5±0.05, and an equal volume of toluene was added to 3 ml of the cell suspension, followed by stirring for 60 seconds.
After stirring, incubation of an aqueous solution was performed overnight at room temperature to completely remove the trace solvent. OD600 in the aqueous solution was observed and cell surface hydrophobicity (CSH) was evaluated by hydrophobicity index (HI) using the following formula. (HI=[1−(OD600 after vortexing/OD600 before vortexing)]×100) (Mattos-Guaraldi et al., 1999). 8. Identification of Anti-Viral Effect and Cytotoxicity of Myristoleic Acid in Nematode Model

[7] = tested on: S. aureus ATCC 6538, S. aureus ATCC 25923, MRSA MW2, MRSA ATCC 33591, S. epidermidis ATCC 14990; assay: Biofilm formation of five Staphylococcus strains; type: cell-based, Staphylococcus aureus, Staphylococcus epidermidis
Excerpt: (§1) The antibacterial and anti-biofilm activity of myristoleic acid against five Staphylococcus aureus strains was identified, including two methicillin-sensitive S. aureus strains (MSSA; ATCC 25923 and ATCC 6538), two methicillin-resistant S. aureus strains (MRSA, MW2, and ATCC 33591), and S. epidermidis strains.

Staphylococcus strains = assay: MIC against Staphylococcus strains; type: cell-based, Staphylococcus aureus
Excerpt: as §1

[8] = tested on: C. elegans infected with C. acnes ATCC 6919; assay: C. elegans killing assay with C. acnes infection; type: in vivo; conditions: 10 μg/ml, 4 days; 20% survived without treatment
Experimental: C. elegans killing assay was performed with a slight modification of the previously reported method (Beceiro et al., 2014). Briefly, assays were performed in 96-well plates.
Young adult nematodes (20-30) [fer-15(b26);fem-1(hc17)] were transferred to each well contained in an M9 solution. The untreated control and fatty acid-treated C. acnes cells were each added to separate wells containing 20 to 30 nematodes and incubated at 25° C.
Nematodes solely exposed to E. coli OP50 at CFU of 1×10^6 cells/ml were used as a control.
Viability was identified by exposing to LED or UV LED light for 10 to 30 seconds using the iRiS™ Digital Cell Imaging System (Logos BioSystems, South Korea) by the previously reported method (Rajasekharan et al., 2018). The experiments were repeated three times.

uninfected C. elegans = assay: Chemical toxicity in uninfected C. elegans; type: in vivo; conditions: increased to 500 μg/ml for 5 days, uninfected nematodes
Experimental: The toxicity of myristoleic acid was identified in […].
[…] was treated with myristoleic acid with various doses, and survival was checked every day for 5 consecutive days.
In addition, in order to identify the chemical toxicity of myristoleic acid, uninfected nematodes were exposed to different concentrations of myristoleic acid.

S. aureus ATCC 6538 = assay: Biofilm formation of S. aureus ATCC 6538; type: cell-based, Staphylococcus aureus
Excerpt: as §1

C. acnes [9] = conditions: after 72 hours, previous report; cited from earlier work
[10] = Cutibacterium acnes, ATCC6919, 96 h, read-out: MIC

| Compound | inhibition at 20 µg/mL (C. acnes ATCC 6919 [1]) [%] | EPS production (C. acnes ATCC 6919 [4]) | change of cell hydrophobicity (C. acnes ATCC 6919 [6]) | further results |
| --- | --- | --- | --- | --- |
| CCCCC/C=C\C/C=C\C/C=C\C/C=C\CCCC(=O)O [arachidonic acid] | > 60 |  |  |  |
| CCCC/C=C\CCCCCCCC(=O)O [myristoleic acid] |  | significant reduction in EPS production | reduced cell hydrophobicity the most | C. acnes biofilm formation (C. acnes ATCC 6919 [1]; <10 μg/ml): significantly inhibited; inhibition at 1 µg/mL (C. acnes ATCC 6919 [1]): ≥ 80%; MIC of myristoleic acid relative to lauric acid (times lower) (C. acnes ATCC 6919 [2]; 20 μg/ml vs 100 μg/ml): 5 times; MIC (C. acnes ATCC 6919 [2]; [10]): 20 to 200 µg/mL (≈ 88.4 to 884 µM); MIC (C. acnes ATCC 6919 [2]): 20 µg/mL (≈ 88.4 µM); planktonic cell growth (C. acnes ATCC 6919 [2]; increased to 10 μg/ml): did not reduce planktonic cell growth; C. acnes cells killed (C. acnes ATCC 6919 [3]; in 1 hour): ≥ 99.999%; EPS production by SEM analysis (C. acnes [5]): reduction in EPS production; hydrophobicity index (cells made hydrophilic) (C. acnes ATCC 6919 [6]; 10 μg/ml): > 20%; dose-dependent effect on hydrophobicity (C. acnes ATCC 6919 [6]; 5, 10, 15, or 20 μg/ml): clear-cut decrease in hydrophobicity in a dose-dependent manner; anti-biofilm activity ([7]; 5 Staphylococcus strains): strong anti-biofilm activity; inhibition at 50 µg/mL ([7]; ALL5, 50 μg/ml, all 5 strains, read-out: biofilm formation inhibitory effect): > 90%; MIC (Staphylococcus strains): 150 µg/mL (≈ 663 µM); survival of C. elegans infected with C. acnes [8]: 70%; toxicity to C. elegans (uninfected C. elegans): did not show toxicity |
| CCCCCCCCCCCCCCCCC(=O)O [heptadecanoic acid] | > 60 |  | a little change in hydrophobicity |  |
| CCCCCCCCCCCC(=O)O [lauric acid, reference compound] |  | significant reduction in EPS production | reduced cell hydrophobicity the most | inhibition at 1 µg/mL (C. acnes ATCC 6919 [1]): ≥ 80%; killing of C. acnes cells (C. acnes ATCC 6919 [3]): did not effectively kill; anti-biofilm activity (S. aureus ATCC 6538): weak anti-biofilm activity; MIC (C. acnes [9]): 60 µg/mL (≈ 300 µM) |
| CCCCCCCCC(=O)O [nonanoic acid] | > 60 |  |  |  |
| CCCCCCCCCC(=O)O [decanoic acid] | > 60 | no significant changes |  | MIC (C. acnes ATCC 6919 [2]; [10]): 20 to 200 µg/mL (≈ 116 to 1160 µM) |
| CCCCCCCC/C=C\CCCCCCCC(=O)O [oleic acid] | > 60 |  |  |  |
| CCCCCCC(=O)O [heptanoic acid] |  | no significant changes |  | change in biofilm formation (C. acnes ATCC 6919 [1]): very subtle changes in biofilm formation |
| CCCCCC/C=C\CCCCCCCC(=O)O [cis-9-hexadecenoic acid, cis-9 hexadecenoic acid] |  | no significant changes | a little change in hydrophobicity | change in biofilm formation (C. acnes ATCC 6919 [1]): very subtle changes in biofilm formation |
| CCCCCCCCCCCCCCCCCCCCCCC(=O)O [trichoic acid, tricosanoic acid] | > 60 | no significant changes | a little change in hydrophobicity |  |
| CCCCCCCCCCCCCC(=O)O [myristic acid] | > 60 |  |  |  |
| CCCCCCCCCCCCCCCC(=O)O [palmitic acid] | > 60 |  |  |  |
| CC/C=C\C/C=C\C/C=C\CCCCCCCC(=O)O [linolenic acid] | > 60 |  |  |  |
| CCCCC(=O)O [valeric acid, pentanoic acid] |  |  |  | change in biofilm formation (C. acnes ATCC 6919 [1]): very subtle changes in biofilm formation |
| CCCCCCCCCCC(=O)O [undecanoic acid] | > 60 | significant reduction in EPS production |  | MIC (C. acnes ATCC 6919 [2]; [10]): 20 to 200 µg/mL (≈ 107 to 1070 µM) |
| CCCCC/C=C\C/C=C\CCCCCCCC(=O)O [linoleic acid] | > 60 |  | reduced cell hydrophobicity the most |  |
| CCCCCCCC/C=C\CCCCCCCCCCCC(=O)O [erucic acid] | > 60 |  |  |  |
| CCCCCCCCCCCCCCCCCC(=O)O [stearic acid] | > 60 | no significant changes | a little change in hydrophobicity |  |
